Experimental data from patent US12109292B2, “Bioflavonoid compositions and their use” (Oraldent Limited, priority 2018, dated 2024).

What was measured:
[1] = test system: Streptococcus mutans; assay: Inhibition zone assay on agar plate; type: cell-based; details: 48 h at 37° C. anaerobe
Description: The antibacterial activity of ε-polylysine was semi-quantitatively assessed in a inhibition zone assay. 0.1 mL of a confluent Streptococcus mutans culture was spread over a Brain Heart Infusion (BHI) agar plate. Filter platelets (5 mm diameter) soaked with 0.01 mL substance were applied on plate. Plates were incubated 48 h at 37° C. under anaerobe conditions. The diameter of outer limit of the inhibition zones were measured, the diameter of the platelet deduced and the half result considered the radius of inhibition rings. Concentrations were tested in triplicate and their results averaged.

[2] = test system: S. mutans; assay: Short exposure assay (bactericidal effect), colony count; type: cell-based, Streptococcus mutans; details: 0.05%; 10 minutes; 5000 CFU inoculum
Description: The short-term antibacterial activity of Citrox was semi-quantitatively assessed in a short exposure assay. A S. mutans culture, diluted in order to contain 5000 Colony Forming Units, was incubated for 10 minutes in presence of the antibacterial substance and extemporarily plated onto a BHI agar plate. Plates were incubated at 37° C. under anaerobe conditions and colony counted. […] Citrox 0.5% reduced the count of CFU to the half (<3000 CFU).

[3] = test system: Escherichia coli; assay: Direct exposure of Escherichia coli mini cultures, minimal inhibitory concentration by turbidity; type: cell-based; details: E. coli, 5 hours at 37° C., extrapolated from FIG. 2
Description: Growth inhibition was monitored by measuring turbidity of mini cultures after 5 hours of aerobe incubation at 37° C. under agitation. Solutions were diluted to the half in cascade.

[4] = test system: Escherichia coli; assay: Pre-treatment of high binding plates with Citrox/ε-polylysine, then Escherichia coli growth inhibition (turbidity); type: cell-based
Description: High Binding plates were pre-treated with 0.1 mL of pure Citrox/ε-Polylysine solutions incubated 60′ at room temperature. The concentrations of Citrox range from 0.06% to 4%. The ε-Polylysine concentrations range from 30 mg/L to 120 mg/L. The wells have been emptied and rinsed with 0.2 mL bi-distilled water. 0.2 mL of a diluted Escherichia coli culture (turbidity: 5 m OD at 600 nm) were given to the pre-treated wells and incubated for 3 hours at 37° C. Turbidity were measured at 600 nm and percentage of growth inhibition in comparison to untreated well calculated (FIG. 1).

Molecule: OO [Water peroxide, reference compound]
- Radius of inhibition rings ([1]; 0.1%): 1.5 mm
- Radius of inhibition rings ([1]; 1%): 5 mm
- colony formation after short exposure [2]: complete absence of colony formation

Molecule: ε-Polylysine
- Minimal inhibitory concentration (MIC) [3]: 4 µg/mL
- highest ε-polylysine concentration that does not affect significantly the antibacterial effect of Citrox pretreatment [4]: 30 mg/L
- effect of plate-absorbed substance on growth of bacteria in suspension ([4]; high binding plate, substance absorbed onto solid surface): does not affect the growth of bacteria in suspension
- Radius of inhibition rings ([1]; 10 mg/L): 0.5 mm
- Radius of inhibition rings ([1]; 100 mg/L): 2.5 mm
- Radius of inhibition rings ([1]; 1000 mg/L): 6.5 mm
